In brackets after ≈: the same amount, converted by molar mass.
System: not listed separately
Assay: Kinetic solubility in phosphate-buffered saline, pH 7.4
Type: physicochemical
Settings: phosphate-buffered saline, 25 °C, pH 7.4, aqueous buffer, kinetic from dmso stock, Table S1; incubation 1; read-out: PBS solubility, pH 7.4, Incubation 1
Experimental: Analysis of Aqueous Solubility […]
compound (Ondansetron) were assessed for kinetic solubility in phosphate-buffered saline, pH […]
Phosphate buffered saline, pH 7.4 (Sigma-Aldrich, USA; Cat #P3813) […]
MultiScreen HTS 96 Well Filter Plates (Millipore, Ireland; Cat # MSGVS2210) […]
Matrix Multichannel Electronic Pipette 2-125 µL, 5-250 µL, 15-1250 µL (Thermo Scientific, […]
Vacuum pump (Millipore, USA; Model # XX5500000)
The measurements were performed using SpectraMax Plus reader in UV-Vis mode. Acquisition and analysis of the data were performed using SoftMax Pro v.5.4 (Molecular Devices) and Excel […]
Kinetic solubility assay was performed according to the Enamine’s aqueous solubility SOP.
Briefly, using a 20 mM stock solution of the compound in 100% DMSO dilutions were prepared to a theoretical concentration of 400 μM in duplicates in phosphate-buffered saline pH 7.4 […]
for two hours and then filtered through HTS filter plates using a vacuum manifold. The filtrates of test compounds were diluted 2-fold with acetonitrile with 2% DMSO before measuring.
In parallel, compound dilutions in acetonitrile/PBS (1:1) were prepared to theoretical […]
DMSO to generate calibration curves. Ondansetron was used as reference compound to control proper assay performance. 200 μl of each sample was transferred to 96-well plate and measured in 200-550 nm range with 5 nm step.
The concentrations of compounds in PBS filtrate are calculated using a dedicated Microsoft Excel calculation script. Proper absorbance wavelengths for calculations are selected for each compound manually based on absorbance maximums (absolute absorbance unit values for the minimum and maximum concentration points within 0 – 3 OD range). Each of the final datasets is additionally visually evaluated by the operator and goodness of fit (R2) is calculated for each calibration curve. The effective range of this assay is approximately 2-400 μM and the […]

Compound | solubility at 2 h
O=C(NC1CCN(CCCCC2(C(=O)NCC(F)(F)F)c3ccccc3-c3ccccc32)CC1)c1ccccc1-c1ccc(C(F)(F)F)cc1 [Lomitapide, reference compound] | 3 µM (≈ 2.08 µg/mL)
O=C(O)c1ccccc1C(=O)Nc1ccc(S(=O)(=O)Nc2nccs2)cc1 [Phthalylsulfathiazole, reference compound] | 169 µM (≈ 68.2 µg/mL)

Same assay, conditions: phosphate-buffered saline, 25 °C, pH 7.4, aqueous buffer, kinetic from dmso stock, Table S1; incubation 2; read-out: PBS solubility, pH 7.4, Incubation 2

Compound | solubility at 2 h
O=C(NC1CCN(CCCCC2(C(=O)NCC(F)(F)F)c3ccccc3-c3ccccc32)CC1)c1ccccc1-c1ccc(C(F)(F)F)cc1 [Lomitapide, reference compound] | 3 µM (≈ 2.08 µg/mL)
O=C(O)c1ccccc1C(=O)Nc1ccc(S(=O)(=O)Nc2nccs2)cc1 [Phthalylsulfathiazole, reference compound] | 171 µM (≈ 69 µg/mL)

Same assay, conditions: phosphate-buffered saline, 25 °C, pH 7.4, aqueous buffer, kinetic from dmso stock, Table S1; mean of 2 incubations; 25 °C, 2 h, 2% DMSO; effective range approx. 2-400 μM; read-out: PBS solubility, pH 7.4, Mean

Compound | solubility at 2 h
O=C(NC1CCN(CCCCC2(C(=O)NCC(F)(F)F)c3ccccc3-c3ccccc32)CC1)c1ccccc1-c1ccc(C(F)(F)F)cc1 [Lomitapide, reference compound] | 3 µM (≈ 2.08 µg/mL)

Same assay, conditions: phosphate-buffered saline, 25 °C, pH 7.4, aqueous buffer, kinetic from dmso stock, experimental kinetic solubility in phosphate-buffered saline at pH 7.4; Fig. 3; read-out: Solubility

Compound | solubility at 2 h
O=C(NC1CCN(CCCCC2(C(=O)NCC(F)(F)F)c3ccccc3-c3ccccc32)CC1)c1ccccc1-c1ccc(C(F)(F)F)cc1 [Lomitapide, reference compound] | 3 ± 0.1 µM (≈ 2.08 µg/mL)
O=C(O)c1ccccc1C(=O)Nc1ccc(S(=O)(=O)Nc2nccs2)cc1 [Phthalylsulfathiazole, reference compound] | 170 µM (≈ 68.6 µg/mL)

System: human liver microsomes
Assay: Metabolic stability in human liver microsomes
Type: in vitro ADME
Settings: human liver microsomes
Experimental: (§1) The data acquisition and system control was performed using Analyst 1.6.3 software from AB Sciex. Methods Microsomal incubations were carried out in 96-well plates in 5 aliquots of 30 μL each (one for each time point). […] In the control reactions the NADPH-cofactor system was substituted with phosphate buffer. […] Each reaction was performed in duplicates. Five time points over 40 minutes were analyzed. The reactions were stopped by adding 4 volumes of methanol containing internal standard to incubation aliquots, followed by protein sedimentation by centrifuging at 5500 rpm for 4 minutes. […]. Supernatants were analyzed using the HPLC system coupled with tandem mass spectrometer. […] In some cases, the last time point is excluded from the calculations to ensure acceptable logarithmic linearity of decay.

Compound | CIint, intrinsic clearance
O=C(NC1CCN(CCCCC2(C(=O)NCC(F)(F)F)c3ccccc3-c3ccccc32)CC1)c1ccccc1-c1ccc(C(F)(F)F)cc1 [Lomitapide, reference compound] | 55 µL/min/mg

Same assay, conditions: human, microsomes

Compound | metabolic stability (in words)
O=C(O)c1ccccc1C(=O)Nc1ccc(S(=O)(=O)Nc2nccs2)cc1 [Phthalylsulfathiazole, reference compound] | metabolically stable

System: not listed separately
Assay: Metabolic stability in human liver microsomes
Type: in vitro ADME
Settings: both sexes, human, liver microsomes, pH 7.4, human liver microsomes, 2 μM, 37 °C, with NADPH; 7 min
Experimental: as §1

Compound | remaining at […], 2 µM
O=C(NC1CCN(CCCCC2(C(=O)NCC(F)(F)F)c3ccccc3-c3ccccc32)CC1)c1ccccc1-c1ccc(C(F)(F)F)cc1 [Lomitapide, reference compound] | 97%
O=C(O)c1ccccc1C(=O)Nc1ccc(S(=O)(=O)Nc2nccs2)cc1 [Phthalylsulfathiazole, reference compound] | 97%

Same assay, conditions: both sexes, human, liver microsomes, pH 7.4, human liver microsomes, 2 μM, 37 °C, with NADPH; 15 min

Compound | remaining at […], 2 µM
O=C(NC1CCN(CCCCC2(C(=O)NCC(F)(F)F)c3ccccc3-c3ccccc32)CC1)c1ccccc1-c1ccc(C(F)(F)F)cc1 [Lomitapide, reference compound] | 89%
O=C(O)c1ccccc1C(=O)Nc1ccc(S(=O)(=O)Nc2nccs2)cc1 [Phthalylsulfathiazole, reference compound] | 101%

Same assay, conditions: both sexes, human, liver microsomes, pH 7.4, human liver microsomes, 2 μM, 37 °C, with NADPH; 25 min; read-out: % Remaining, Mean of 2

Compound | remaining at 25 min, 2 µM
O=C(NC1CCN(CCCCC2(C(=O)NCC(F)(F)F)c3ccccc3-c3ccccc32)CC1)c1ccccc1-c1ccc(C(F)(F)F)cc1 [Lomitapide, reference compound] | 49%
O=C(O)c1ccccc1C(=O)Nc1ccc(S(=O)(=O)Nc2nccs2)cc1 [Phthalylsulfathiazole, reference compound] | 101%

Same assay, conditions: both sexes, human, liver microsomes, pH 7.4, human liver microsomes, 2 μM, 37 °C, with NADPH; 40 min; read-out: % Remaining, Mean of 2

Compound | remaining at 40 min, 2 µM
O=C(NC1CCN(CCCCC2(C(=O)NCC(F)(F)F)c3ccccc3-c3ccccc32)CC1)c1ccccc1-c1ccc(C(F)(F)F)cc1 [Lomitapide, reference compound] | 46%
O=C(O)c1ccccc1C(=O)Nc1ccc(S(=O)(=O)Nc2nccs2)cc1 [Phthalylsulfathiazole, reference compound] | 96%

Same assay, conditions: both sexes, human, liver microsomes, pH 7.4, human liver microsomes, 0.42 mg protein per ml; Table S3; * approximate due to high stability; read-out: Clint

Compound | microsomal CLint at 2 µM
O=C(NC1CCN(CCCCC2(C(=O)NCC(F)(F)F)c3ccccc3-c3ccccc32)CC1)c1ccccc1-c1ccc(C(F)(F)F)cc1 [Lomitapide, reference compound] | 55 µL/min/mg
O=C(O)c1ccccc1C(=O)Nc1ccc(S(=O)(=O)Nc2nccs2)cc1 [Phthalylsulfathiazole, reference compound] | ~2 µL/min/mg

Same assay, conditions: both sexes, human, liver microsomes, pH 7.4, human liver microsomes; * approximate due to high stability; read-out: t1/2

Compound | half-life at 2 µM
O=C(NC1CCN(CCCCC2(C(=O)NCC(F)(F)F)c3ccccc3-c3ccccc32)CC1)c1ccccc1-c1ccc(C(F)(F)F)cc1 [Lomitapide, reference compound] | 0.507 h
O=C(O)c1ccccc1C(=O)Nc1ccc(S(=O)(=O)Nc2nccs2)cc1 [Phthalylsulfathiazole, reference compound] | ~16 h

Same assay, conditions: both sexes, human, liver microsomes, pH 7.4, human liver microsomes; Fig. 3; read-out: CIint, intrinsic clearance

Compound | microsomal CLint at 2 µM
O=C(O)c1ccccc1C(=O)Nc1ccc(S(=O)(=O)Nc2nccs2)cc1 [Phthalylsulfathiazole, reference compound] | 2 µL/min/mg

Same assay, conditions: both sexes, pH 7.4; human liver microsomes, no NADPH cofactor; 40 min; ** instability partially or completely not determined by CYP450 activity; read-out: % Remaining without cofactor, Mean of 2

Compound | remaining at 40 min, 2 µM
O=C(NC1CCN(CCCCC2(C(=O)NCC(F)(F)F)c3ccccc3-c3ccccc32)CC1)c1ccccc1-c1ccc(C(F)(F)F)cc1 [Lomitapide, reference compound] | 88%
O=C(O)c1ccccc1C(=O)Nc1ccc(S(=O)(=O)Nc2nccs2)cc1 [Phthalylsulfathiazole, reference compound] | 124%

Same assay, conditions: both sexes, pH 7.4; human liver microsomes; elimination constant; * approximate due to high stability; read-out: kel (converted)

Compound | k el at 2 µM
O=C(NC1CCN(CCCCC2(C(=O)NCC(F)(F)F)c3ccccc3-c3ccccc32)CC1)c1ccccc1-c1ccc(C(F)(F)F)cc1 [Lomitapide, reference compound] | 0.000383 s⁻¹
O=C(O)c1ccccc1C(=O)Nc1ccc(S(=O)(=O)Nc2nccs2)cc1 [Phthalylsulfathiazole, reference compound] | ~1.67e-05 s⁻¹

System: not listed separately
Assay: physchem
Type: physicochemical
Settings: Table S2; n-octanol/PBS pH 7.4; incubation 1
Experimental: Determination of Distribution Coefficient (LogD, pH 7.4) […]
n-octanol – phosphate buffered saline (PBS), pH 7.4. Distribution coefficient (or LogD) is a […]
Phosphate buffered saline, tablet (Sigma-Aldrich, USA; Cat # P4417)
Acetic acid (Enamine, Ukraine.)
DMSO stock solutions of the test compounds 10mM
Gradient HPLC system (Shimadzu, Japan)
MTR22 Multi Mix Rotator (UNICO, USA)
Laboratory Centrifuge, Sigma 4-15C, Qiagen (SIGMA GmbH, Germany) […]
allowed to mix in a rotator for 1 h at 30 rpm. Phase separation was assured by centrifugation for […]
dilution. The samples (both phases) were analyzed using a HPLC system coupled with a tandem mass spectrometer. Mebendazole was used as a reference compound. […]
where: SO – peak area of the analyte in octanol phase
S P – peak area of the analyte in PBS buffer do – dilution coefficient for octanol phase dp – dilution coefficient for aqueous phase

Compound | D (partition ratio), incubation 1
O=C(NC1CCN(CCCCC2(C(=O)NCC(F)(F)F)c3ccccc3-c3ccccc32)CC1)c1ccccc1-c1ccc(C(F)(F)F)cc1 [Lomitapide, reference compound] | 5.98E+08
O=C(O)c1ccccc1C(=O)Nc1ccc(S(=O)(=O)Nc2nccs2)cc1 [Phthalylsulfathiazole, reference compound] | 2.09E-01

Same assay, conditions: Table S2; n-octanol/PBS pH 7.4; incubation 2

Compound | D (partition ratio), incubation 2
O=C(NC1CCN(CCCCC2(C(=O)NCC(F)(F)F)c3ccccc3-c3ccccc32)CC1)c1ccccc1-c1ccc(C(F)(F)F)cc1 [Lomitapide, reference compound] | 3.42E+05
O=C(O)c1ccccc1C(=O)Nc1ccc(S(=O)(=O)Nc2nccs2)cc1 [Phthalylsulfathiazole, reference compound] | 8.99E-02

Same assay, conditions: Table S2; n-octanol/PBS pH 7.4; incubation 3

Compound | D (partition ratio), incubation 3
O=C(NC1CCN(CCCCC2(C(=O)NCC(F)(F)F)c3ccccc3-c3ccccc32)CC1)c1ccccc1-c1ccc(C(F)(F)F)cc1 [Lomitapide, reference compound] | 6.79E+04
O=C(O)c1ccccc1C(=O)Nc1ccc(S(=O)(=O)Nc2nccs2)cc1 [Phthalylsulfathiazole, reference compound] | 4.17E-02

Same assay, conditions: pH 7.4, LogD, pH 7.4 (mean)

Compound | logD at 1 h
O=C(NC1CCN(CCCCC2(C(=O)NCC(F)(F)F)c3ccccc3-c3ccccc32)CC1)c1ccccc1-c1ccc(C(F)(F)F)cc1 [Lomitapide, reference compound] | > 4.5
O=C(O)c1ccccc1C(=O)Nc1ccc(S(=O)(=O)Nc2nccs2)cc1 [Phthalylsulfathiazole, reference compound] | -1.04

Same assay, conditions: pH 7.4, LogD, pH 7.4, incubation 1

Compound | logD at 1 h
O=C(NC1CCN(CCCCC2(C(=O)NCC(F)(F)F)c3ccccc3-c3ccccc32)CC1)c1ccccc1-c1ccc(C(F)(F)F)cc1 [Lomitapide, reference compound] | > 4.5
O=C(O)c1ccccc1C(=O)Nc1ccc(S(=O)(=O)Nc2nccs2)cc1 [Phthalylsulfathiazole, reference compound] | -0.68

Same assay, conditions: pH 7.4, LogD, pH 7.4, incubation 2

Compound | logD at 1 h
O=C(NC1CCN(CCCCC2(C(=O)NCC(F)(F)F)c3ccccc3-c3ccccc32)CC1)c1ccccc1-c1ccc(C(F)(F)F)cc1 [Lomitapide, reference compound] | > 4.5
O=C(O)c1ccccc1C(=O)Nc1ccc(S(=O)(=O)Nc2nccs2)cc1 [Phthalylsulfathiazole, reference compound] | -1.05

Same assay, conditions: pH 7.4, LogD, pH 7.4, incubation 3

Compound | logD at 1 h
O=C(NC1CCN(CCCCC2(C(=O)NCC(F)(F)F)c3ccccc3-c3ccccc32)CC1)c1ccccc1-c1ccc(C(F)(F)F)cc1 [Lomitapide, reference compound] | > 4.5
O=C(O)c1ccccc1C(=O)Nc1ccc(S(=O)(=O)Nc2nccs2)cc1 [Phthalylsulfathiazole, reference compound] | -1.38

Same assay, conditions: pH 7.4, logD (7.4)

Compound | logD at 1 h
O=C(NC1CCN(CCCCC2(C(=O)NCC(F)(F)F)c3ccccc3-c3ccccc32)CC1)c1ccccc1-c1ccc(C(F)(F)F)cc1 [Lomitapide, reference compound] | > 4.5
O=C(O)c1ccccc1C(=O)Nc1ccc(S(=O)(=O)Nc2nccs2)cc1 [Phthalylsulfathiazole, reference compound] | < 1

Reference: article PMC10396955, “2-Oxabicyclo[2.1.1]hexanes as saturated bioisosteres of the ortho-substituted phenyl ring” (Nature Chemistry, 2023)
